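Compound exposure: 48 hours, 5 concentrations, 96-well plates. GI50 marks 50% less growth.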 Active and inactive are the calls of the source. Rule as the data show it: active = GI50 up to about 1.1 µM and inactive = higher.
Key:
Test in all cases: NCI anticancer screen, dose series, 48 h
[1] = tested on: A549
[2] = tested on: EKVX
[3] = tested on: HCC 2998
[4] = tested on: HCT-15
[5] = tested on: HOP-62
[6] = tested on: K562
[7] = tested on: MDA-MB-231
[8] = tested on: MOLT-4
[9] = tested on: Malme-3M
[10] = tested on: NCI-H226
[11] = tested on: NCI-H23
[12] = tested on: NCI-H522
[13] = tested on: OVCAR-3
[14] = tested on: OVCAR-4
[15] = tested on: PC-3
[16] = tested on: RPMI-8226
[17] = tested on: SN12C
[18] = tested on: SNB-19
[19] = tested on: SW-620
[20] = tested on: RXF 393

Row | Compound | GI50 [1] | GI50 [2] | GI50 [3] | GI50 [4] | GI50 [5] | GI50 [6] | GI50 [7] | GI50 [8] | GI50 [9] | GI50 [10] | GI50 [11] | GI50 [12] | GI50 [13] | GI50 [14] | GI50 [15] | GI50 [16] | GI50 [17] | GI50 [18] | GI50 [19] | GI50 [20]
1 | O=c1[nH]nc(Cc2ccc(Cl)cc2)n1/N=C/c1c[nH]c2ccccc12 | > 100 µM (inactive) | > 100 µM (inactive) | > 100 µM (inactive) | > 100 µM | > 100 µM (inactive) | > 100 µM (inactive) | > 100 µM (inactive) | > 100 µM (inactive) | > 100 µM (inactive) | > 100 µM (inactive) | > 100 µM (inactive) | > 100 µM (inactive) | > 100 µM (inactive) | > 100 µM (inactive) | > 100 µM (inactive) | 26.3 µM (inactive) | > 100 µM (inactive) | > 100 µM (inactive) | > 100 µM (inactive) | 
2 | CCOc1ccc2c(c1)/C(=C(\C(Cl)=C(Cl)Cl)[N+](=O)[O-])N2 | > 100 µM (inactive) | 37.6 µM (inactive) | > 100 µM (inactive) | > 100 µM | > 100 µM (inactive) | 51.6 µM (inactive) | > 100 µM (inactive) | > 100 µM (inactive) | > 100 µM (inactive) | > 100 µM (inactive) | > 100 µM (inactive) |  | > 100 µM (inactive) | 33.2 µM (inactive) | > 100 µM (inactive) | 69.3 µM (inactive) | > 100 µM (inactive) | > 100 µM (inactive) | > 100 µM (inactive) | 
3 | Cc1cc(-c2no[n+]([O-])c2-c2cc(C)sc2S(C)(=O)=O)c(S(C)(=O)=O)s1 |  | > 100 µM (inactive) | > 100 µM (inactive) | > 100 µM | > 100 µM (inactive) | 83.4 µM (inactive) | > 100 µM (inactive) | > 100 µM (inactive) |  | > 100 µM (inactive) | > 100 µM (inactive) | 87.5 µM (inactive) | > 100 µM (inactive) | > 100 µM (inactive) | > 100 µM (inactive) | > 100 µM (inactive) | > 100 µM (inactive) | 20.2 µM (inactive) | > 100 µM (inactive) | 
4 | C[C@@H]1OC2(O)[C@@H]3CCCN3C(=O)N(Cc3ccccc3)N2C1=O (stereo not given in full) | > 100 µM (inactive) | > 100 µM (inactive) | > 100 µM (inactive) | > 100 µM | > 100 µM (inactive) |  | > 100 µM (inactive) | > 100 µM (inactive) | > 100 µM (inactive) | > 100 µM (inactive) | > 100 µM (inactive) |  | > 100 µM (inactive) | > 100 µM (inactive) | > 100 µM (inactive) |  | > 100 µM (inactive) | > 100 µM (inactive) | > 100 µM (inactive) | > 100 µM (inactive)
5 | O=S(=O)(/N=C1/S/C(=N\c2ccccc2)N(c2ccccc2)/C1=N/S(=O)(=O)c1ccccc1)c1ccccc1 | 22.6 µM (inactive) | 21.5 µM (inactive) | 20.9 µM (inactive) | 14.8 µM | 28.5 µM (inactive) | 23.9 µM (inactive) | 13.7 µM (inactive) | 21.4 µM (inactive) | 22.5 µM (inactive) | 19.8 µM (inactive) | 16.4 µM (inactive) |  |  |  | > 10 µM (inactive) | 17.7 µM (inactive) | 12.4 µM (inactive) | 24 µM (inactive) | 19.4 µM (inactive) | 
6 | CN1CCN(Cc2ccc(C(=S)Nc3ccccc3)s2)CC1 | 55 µM (inactive) | 65.3 µM (inactive) | 33.1 µM (inactive) | 21 µM | 93.8 µM (inactive) | 25.9 µM (inactive) |  | 36.8 µM (inactive) | 89.5 µM (inactive) |  | 18.5 µM (inactive) | 31 µM (inactive) | > 100 µM (inactive) | 54.1 µM (inactive) | 69.7 µM (inactive) | 28.6 µM (inactive) |  | > 100 µM (inactive) | 26.7 µM (inactive) | 
7 | CC(=O)N1C(C(=O)NN2CCOCC2)CSC1c1ccccc1 (stereo not given) | > 100 µM (inactive) | > 100 µM (inactive) | > 100 µM (inactive) | > 100 µM | > 100 µM (inactive) | > 100 µM (inactive) | > 100 µM (inactive) | > 100 µM (inactive) | > 100 µM (inactive) | > 100 µM (inactive) | > 100 µM (inactive) | > 100 µM (inactive) | > 100 µM (inactive) | > 100 µM (inactive) | > 100 µM (inactive) | > 100 µM (inactive) | > 100 µM (inactive) | > 100 µM (inactive) | > 100 µM (inactive) | 
8 | O=C1[C@@H]2C(c3ccccc3[N+](=O)[O-])=[N+](c3ccccc3)O[C@@H]2C(=O)N1c1ccc(Cc2ccc(N3C(=O)[C@H]4C(c5ccccc5[N+](=O)[O-])=[N+](c5ccccc5)O[C@H]4C3=O)cc2)cc1 | > 100 µM (inactive) | > 100 µM (inactive) | > 100 µM (inactive) | > 100 µM | > 100 µM (inactive) | > 100 µM (inactive) |  | > 100 µM (inactive) | 27.7 µM (inactive) | 74.8 µM (inactive) | > 100 µM (inactive) | > 100 µM (inactive) | > 100 µM (inactive) | > 100 µM (inactive) |  | > 100 µM (inactive) | > 100 µM (inactive) | > 100 µM (inactive) | > 100 µM (inactive) | > 100 µM (inactive)
9 | O=[N+]([O-])c1ccc(Cc2nc3ccccc3s2)cc1 | > 100 µM (inactive) | > 100 µM (inactive) | > 100 µM (inactive) | > 100 µM | > 100 µM (inactive) | 43.7 µM (inactive) |  | 75.2 µM (inactive) | > 100 µM (inactive) | > 100 µM (inactive) | > 100 µM (inactive) | 60.4 µM (inactive) | > 100 µM (inactive) | > 100 µM (inactive) |  | 49.4 µM (inactive) | 36.1 µM (inactive) | > 100 µM (inactive) | 59.3 µM (inactive) | > 100 µM (inactive)
10 | CS/C(=C(\S)c1ccccc1)c1ccccc1 | > 100 µM (inactive) | > 100 µM (inactive) | > 100 µM (inactive) | > 100 µM | > 100 µM (inactive) | > 100 µM (inactive) |  | > 10 µM (inactive) | > 100 µM (inactive) | > 100 µM (inactive) | > 100 µM (inactive) | > 100 µM (inactive) | > 100 µM (inactive) | > 87.1 µM (inactive) |  | > 100 µM (inactive) | > 100 µM (inactive) | > 100 µM (inactive) | > 100 µM (inactive) | > 91.2 µM (inactive)
11 | COc1ccc(NCC(=O)Nn2c(C)nc3ccc(S(=O)(=O)Nc4ccc(OC)cc4)cc3c2=O)cc1 | > 100 µM (inactive) | > 100 µM (inactive) | > 100 µM (inactive) | > 100 µM | > 100 µM (inactive) | > 100 µM (inactive) | > 100 µM (inactive) | > 100 µM (inactive) | > 100 µM (inactive) | > 100 µM (inactive) | > 100 µM (inactive) | > 100 µM (inactive) | > 100 µM (inactive) | > 100 µM (inactive) | > 100 µM (inactive) | > 100 µM (inactive) | > 100 µM (inactive) | > 100 µM (inactive) | > 100 µM (inactive) | 
12 | CC(N)(/C=C/c1ccccc1)C(=O)O (stereo not given) | > 100 µM (inactive) | > 100 µM (inactive) |  | > 100 µM | > 100 µM (inactive) | > 100 µM (inactive) | > 100 µM (inactive) | > 100 µM (inactive) | > 100 µM (inactive) | > 100 µM (inactive) | > 100 µM (inactive) | > 100 µM (inactive) | > 100 µM (inactive) | > 100 µM (inactive) | > 100 µM (inactive) | > 100 µM (inactive) | > 100 µM (inactive) | > 100 µM (inactive) | > 100 µM (inactive) | 
13 | COC(=O)C1(C(=O)OC)N=C(C)OC1c1ccccn1 (stereo not given) | > 100 µM (inactive) | > 100 µM (inactive) | > 100 µM (inactive) | > 100 µM | > 100 µM (inactive) | > 100 µM (inactive) |  | > 100 µM (inactive) |  | > 100 µM (inactive) | > 100 µM (inactive) |  | > 100 µM (inactive) | > 100 µM (inactive) | > 100 µM (inactive) | > 100 µM (inactive) | > 100 µM (inactive) | > 100 µM (inactive) | > 100 µM (inactive) | > 100 µM (inactive)
14 | CC1=NN(c2nc(N)nc(CS(C)(=O)=O)n2)C(C)(C)C1 |  | > 100 µM (inactive) | > 100 µM (inactive) | > 100 µM | > 100 µM (inactive) | > 100 µM (inactive) | > 100 µM (inactive) | > 100 µM (inactive) |  |  | > 100 µM (inactive) |  |  | > 100 µM (inactive) | > 100 µM (inactive) | > 100 µM (inactive) |  | > 100 µM (inactive) | > 100 µM (inactive) | > 100 µM (inactive)
15 | NC(=O)NCCCC(NC(=O)OCCCCCCn1ccc(=O)[nH]c1=O)C(=O)O (stereo not given) | > 100 µM (inactive) | > 100 µM (inactive) | > 100 µM (inactive) | > 100 µM | > 100 µM (inactive) | > 100 µM (inactive) | > 100 µM (inactive) | > 100 µM (inactive) |  | > 100 µM (inactive) | > 100 µM (inactive) |  | > 100 µM (inactive) | > 100 µM (inactive) | > 100 µM (inactive) | 34.5 µM (inactive) | 50.2 µM (inactive) | > 100 µM (inactive) | > 100 µM (inactive) | > 100 µM (inactive)
16 | CSC1=C(SC)SC(=C2SC3=C(SC(=C4SCCS4)S3)S2)S1 | > 100 µM (inactive) | > 100 µM (inactive) | > 100 µM (inactive) | > 100 µM | > 100 µM (inactive) |  | > 100 µM (inactive) | > 100 µM (inactive) | > 100 µM (inactive) | > 100 µM (inactive) | > 100 µM (inactive) | > 100 µM (inactive) | > 100 µM (inactive) | > 100 µM (inactive) | > 100 µM (inactive) | > 100 µM (inactive) | > 100 µM (inactive) | > 100 µM (inactive) | > 100 µM (inactive) | 
